The text below walks through data of patent US11925643B2, “Toll-like receptor 4 (TLR4) inhibitors and use thereof” (MOR RESEARCH APPLICATIONS LTD., priority 2018, dated 2024).

Entries after “also recorded” stand apart in the source; their conditions may differ.

The subject of data set [1] is C57BL mice. The experiment in a line: Heart infarct size after LAD ligation (MI mice model). It counts as in vivo. The procedure:
(§1) Male wild type mice (C57BL) were purchased from Harlan™ (Jerusalem, Israel). Mice were grown in a temperature-controlled atmosphere, 12/12 hours light/dark cycle and given standard food and tap water. The experiments were performed on 2-3-month-old male mice. All experiments were carried out in accordance with the guidelines of the Animal Care and Use Committee of Tel Aviv University with the Guide for the Care and Use of Laboratory Animals published by the US National Institutes of Health.
(§2) Mice were anesthetized (with a mixture of 100 mg/kg ketamine and 10 mg/kg xylazine), intubated and ventilated with air until spontaneous breathing commenced. The left anterior descending artery (LAD) was ligated with one single stitch, forming an ischemia that can be observed almost immediately. By closing the LAD, no further blood flow is permitted in that area, while the surrounding myocardial tissue is almost not affected. This surgical procedure imitates the pathobiological and pathophysiological aspects occurring in infarction-related myocardial ischemia.
Hearts of mice from tested groups were isolated, and pictures were taken to determine the extent of infarct relative to total area of the left ventricle to thereby determine the extent of cardio-protection by an exemplary decoy peptide. The viable heart sections were put in a 1% solution of 2,3,5-triphenyl tetrazolium chloride (TTC) in phosphate buffer for 10 min at 37° C. TTC stained the viable tissue in red while necrotic tissue remained discolored. Sections were fixed overnight in 4% formaldehyde to enhance the contrast between stained and unstained tissue. The sections were then placed between two cover slips and digitally photographed using a Nikon Coolpix 5000 camera, at a resolution of 1400×960 pixels, and quantified by using ImageJ software. The area of ischemia/infarction (TTC-negative) was presented as a percentage of the entire area of the section.
Myocardial infarction (MI) in animals may be mimicked by a procedure called left anterior descending artery (LAD) ligation, described in Materials and Methods above. A pilot dose response experiment was first conducted. Decoy peptide represented by compound PM6 (0.5, 1.0 and 5.0 mg/kg) or aqueous solution of 40% polyethylene glycol (PEG 600) were administered intravenously (IV) to C57BL mice, 1 hour before LAD ligation. All mice were kept under standard animal facility conditions for 24 hours. The heart infarct size was measured in all three groups.

Data set [2] has as its system C57BL mice. The experiment in a line: Serum markers CK, LDH, troponin and GOT after LAD ligation. It counts as in vivo. The method, then:
as §1, §2
Blood was drawn out from the mice and immediately centrifuged at […] for 10 minutes to isolate the serum, which was obtained from the top portion of the test tube. The serum was mixed with double distilled water (DDW) in a ratio of 1:10 and was ready for assaying. Various markers were observed (CK, LDH & troponin) to determine cardiac damage in the serum.
A dose response experiment was conducted using the experiment design of the pilot experiment. PM6 was given to mice in three doses: 0.05, 0.30 and 1.00 mg/kg. Blood levels of four serum markers were assessed. The levels of three markers CK, LDH and troponin were correlated with MI severity. Troponin is a complex of three regulatory proteins that is integral to muscle contraction in skeletal muscle and cardiac muscle, and serves as a highly specific marker for myocardial infarction or heart muscle cell death. The level of the fourth marker GOT was used as an indicator for liver functions.

The test system of the next data set is IL-1β mRNA. The experiment in a line: IL-1β mRNA level by RT-qPCR in hypoxic cardiomyocytes. It counts as cell-based. The settings on record: hypoxic conditions. The procedure:
Real-time RT-PCR experiments were performed in duplicates on an ABI 7900 instrument (Applied Biosystems™) using Taqman™ Master Mix (Applied Biosystems™). The average threshold cycles (Ct) of the duplicates were used to calculate the relative expression levels of the following genes: TLR4 (Applied Biosystems™ assay primer ID: Mm00569848_m1 Tlr4), TLR2 (assay primer ID: Mm01769726_m1 Tlr2), TNF-α (assay primer ID: Mm00443260_g1 Tnf) and IL-1β (assay primer ID: Mm00434228_m1 II1b) in vitro and in vivo following hypoxia or ischemia, respectively. The reference gene was TBP and the primer used was derived from mouse TATA-box binding protein (Applied Biosystems™ assay primer ID: Mm00446973_m1 Tbp). Amounts of TLR2, TLR4, TNF-α and IL-1β mRNAs in each sample were calculated relative to TBP mRNA, based on the corresponding Cts, as Relative Quantity (RQ) values, and normalized taking as 1 a randomly selected sample of the control group (TBP mRNA). […]
Decoy peptides represented by compounds PM1-PM10 were tested in vitro for their ability to decrease the level of CK and LDH released by stressed cardiomyocytes following exposure to LPS or hypoxic stimulation, and further evaluated for their ability to affect the level of IL-1β and TLR4 mRNA, and expression of IκB and TLR4 proteins, according to the protocols described in Materials and Methods and in Example 5 herein above.
Background: Quantitative PCR measures a nucleic acid by following its amplification.

The mark [3] stands for this setting: 0.3 mg/kg IV 1 hour before LAD ligation.

`CCCCCCCCNc1nc(=O)n(Cc2ccccc2)cc1C` [PM6, 1-benzyl-5-methyl-4-(octylamino)pyrimidin-2(1H)-one]: the values for the heart infarct size result in the data set on C57BL mice [1] (0.05 mg/kg IV 1 hour before LAD ligation), in the data set with C57BL mice [1] (0.30 mg/kg IV 1 hour before LAD ligation) and in the data set with C57BL mice [1] (1.00 mg/kg IV 1 hour before LAD ligation) were “significantly reduced”, “significantly reduced; also recorded: significantly effective” and “significantly reduced”, respectively. Further, the infarct size result is on record as “significantly reduced” in the data set with C57BL mice [1] (0.3 mg/kg IV 1 hour after ligation, 7 days) and “significant effect” in the data set with C57BL mice [1] (pilot, 0.5 mg/kg IV 1 hour before LAD ligation, 24 hours). Besides, in the data set with C57BL mice [2] (setting [3]), the “serum CK level” value is on record as “significantly reduced; also recorded: significant reduction”. Moreover, the “serum LDH level” value with C57BL mice [2] (setting [3]) is on record as “significantly reduced; also recorded: significant reduction”. Further, the serum troponin level result with C57BL mice [2] (setting [3]) is “significantly reduced; also recorded: significant reduction”. For the same molecule, the “GOT level (liver function)” value with C57BL mice [2] (0.05, 0.30 and 1.00 mg/kg IV 1 hour before LAD ligation) was “did not affect”. Further, in the data set on IL-1β mRNA, the “inhibition of IL-1β mRNA production” value is approximately 12 fold.
